Data on 1 substance can be found in US20060166189A1, “Methods for detecting invasion of a cell” (priority 2002, published 2006).

The assay concerns HeLa cells. The assay is classed as cell-based.

With cytosine arabinose [Ara C], the “effect on β-galactosidase expression from vSC8 (late vaccinia promoter P11)” value was “completely blocked”.
